# Source: US12422443B2, “Amino-substituted chromenoquinoline-based fluorescent marker, and preparation and use thereof” (SOOCHOW UNIVERSITY, priority 2021, dated 2025)
# Legend:
# [1] = Photostability under iodine-tungsten lamp irradiation (residual absorptivity); type: physicochemical; details: 10 μM in acetonitrile, 500 W iodine-tungsten lamp at 25 cm, 6 hrs irradiation
# Description: The photostability of the above prepared dyes 1a-1d was tested (at a concentration of 10 μM). Dyes 1a-1d and the reference substance Cy7 of corresponding weights were weighed, and respectively dissolved in acetonitrile (at a concentration of 10 μM). All samples were irradiated with a Philips iodine-tungsten lamp (500 W), where the distance between the lamp and the sample was set to 25 cm. An 8 cm-thick sodium nitrite (60 g per liter) cold trap was placed between the lamp and the sample, to eliminate the heat and short-wavelength light. The irradiation was continued for 6 hrs, during which UV and fluorescence were performed every half hour. After six hours, the light stability was measured by residual absorptivity calculated based on the change in the absorption intensity at various times before and after the irradiation. […] It can be seen that dyes 1a-1d have higher photostability compared to cyanine dyes.
# [2] = Ultraviolet absorption and fluorescence emission in dichloromethane; type: physicochemical; details: 10 μM in dichloromethane; for highest fluorescence intensity (emission wavelength): excitation 428 nm (1a), 407 nm (1b), 461 nm (1c), 430 nm (1d), slit 3 nm/3 nm (1d: 5 nm/3 nm)
# Description: The ultraviolet absorption and fluorescence emission performances of the dyes 1a-1d prepared above (at a concentration of 10 μM) in dichloromethane were tested. The horizontal ordinate is the wavelength, and the vertical ordinate is the absorbance and fluorescence intensity, respectively.
# The ultraviolet absorption and fluorescence emission spectra of the fluorescent marker 1a (at a concentration of 10 μM) in dichloromethane are shown in FIG. 3. The fluorescent marker 1a has the maximum absorption at 452 nm (FIG. 3 (a)); and the fluorescent marker 1a has the highest fluorescence intensity at 532 nm (FIG. 3 (e)), where the excitation wavelength is 428 nm, and the slit width is 3 nm/3 nm.
# The ultraviolet absorption and fluorescence emission spectra of the fluorescent marker 1b (at a concentration of 10 μM) in dichloromethane are shown in FIG. 3. The fluorescent marker 1b has the maximum absorption at 473 nm (FIG. 3 (b)); and the fluorescent marker 1b has the highest fluorescence intensity at 562 nm (FIG. 3 (f)), where the excitation wavelength is 407 nm, and the slit width is 3 nm/3 nm.
# The ultraviolet absorption and fluorescence emission spectra of the fluorescent marker 1c (at a concentration of 10 μM) in dichloromethane are shown in FIG. 3. The fluorescent marker 1c has the maximum absorption at 375 nm (FIG. 3 (c)); and the fluorescent marker 1c has the highest fluorescence intensity at 546 nm (FIG. 3 (g)), where the excitation wavelength is 461 nm, and the slit width is 3 nm/3 nm.
# The ultraviolet absorption and fluorescence emission spectra of the fluorescent marker 1d (at a concentration of 10 μM) in dichloromethane are shown in FIG. 3. The fluorescent marker 1d has the maximum absorption at 429 nm (FIG. 3 (d)); and the fluorescent marker 1d has the highest fluorescence intensity at 495 nm (FIG. 3 (h)), where the excitation wavelength is 430 nm, and the slit width is 5 nm/3 nm.
# [3] = system: lipid droplets in Hela cells; assay: Lipid droplet labeling, colocalized confocal imaging with Nile Red in Hela cells; type: cell-based; details: 5 min; for lipid droplet labeling ability (in words): 1a and 1b 6 μM, 1c 5 μM, 1d 8 μM
# From the text: In the following examples, the cells are imaged by laser confocal microscopy, where excitation at 405 nm is employed in the green light channel, and the fluorescence signal in the range of 468-550 nm is collected; and excitation at 561 nm is employed in the red light channel, and the fluorescence signal in the range of 570-750 nm is collected.
# To test the fluorescent labeling ability of the fluorescent marker 1a compared with a commercial lipid droplet marker, the fluorescent marker 1a was prepared into a stock solution in dimethyl sulfoxide, and then added to a conventional cell culture medium, to give a concentration of the fluorescent marker 1a in the cell culture medium of 6 μM. Subsequently, Nile Red (100 nM), a lipid droplet red marker, was added and co-incubated with Hela cells in an incubator at saturated humidity, 37° C., and 5% CO2 for 5 min (the same below); The cells were washed three times with a PBS buffer, and imaged by laser confocal microscopy, where excitation at 405 nm was employed in the green light channel, and the fluorescence signal in the range of 468-550 nm was collected; and excitation at 561 nm was employed in the red light channel, and the fluorescence signal in the range of 570-750 nm was collected. The results are shown in FIG. 5, in which (a) is the bright field, (b) is the cell image with the fluorescent marker 1a, (c) is the cell image with the lipid droplet Red marker, (d) is overlapped image of the green light channel and the red light channel, (e) is the fluorescence intensity of the ROI line in the overlapped image, and (f) is the colocalization assay, where the colocalization coefficient is 0.95.
# To verify the labeling effect of the fluorescent marker 1b (6 μM) on lipid droplets in Hela cells, the same experimental method as that with the fluorescent marker 1a was used.
# The experimental method with the fluorescent marker 1c (5 μM) was the same as that with the fluorescent marker 1a.
# To verify whether Compound 1d can be used in fluorescence imaging of lipid droplets in Hela cells just as the probes 1a-1c do, a cell assay was carried out. The fluorescent marker 1d was prepared into a stock solution in dimethyl sulfoxide, and then added to a conventional cell culture medium, to give a concentration of the fluorescent marker 1d in the cell culture medium of 8 μM. The Hela cells were co-incubated in an incubator at saturated humidity, 37° C., 5% CO2 for 5 min. The cells were washed three times with a PBS buffer, and imaged by laser confocal microscopy, where excitation at 405 nm was employed in the green light channel, and the fluorescence signal in the range of 468-550 nm was collected. […] The results are shown in FIG. 5, in which(s) is the bright field, (t) is the cell image with the fluorescent marker 1d, (u) is the cell image with the lipid droplet Red marker, (v) is overlapped image of the green light channel and the red light channel, (w) is the fluorescence intensity of the ROI line in the overlapped image, and (x) is the colocalization assay, where the colocalization coefficient is 0.90.
# [4] = system: mitochondria in Hela cells; assay: Mitochondria labeling, colocalized confocal imaging with CMA Ros in Hela cells; type: cell-based
# [5] = 6 μM marker with Nile Red (100 nM)
SMILES,photostability (residual absorptivity) [1],maximum absorption [2],highest fluorescence intensity (emission wavelength) [2],"colocalization coefficient [3, 5]",lipid droplet labeling ability (in words) [3],colocalization coefficient ([3]; 5 μM marker with Nile Red (100 nM)),mitochondria labeling ability (in words) ([4]; 8 μM),colocalization coefficient ([4]; 8 μM marker with CMA Ros (100 nM))
CCN(CC)c1ccc2nc3c(cc2c1)c(=O)oc1ccccc13 [1a],46%,452 nm,532 nm,0.95,has lipid droplet labeling ability in Hela cells,,,
CCN(CC)c1ccc2nc3c(cc2c1)c(=O)oc1cc(N(CC)CC)ccc13 [1b],43%,473 nm,562 nm,0.97,good targeting ability to lipid droplets in Hela cells,,,
CCN(CC)c1ccc2c(c1)oc(=O)c1cc3ccc4ccccc4c3nc12 [1c],76%,375 nm,546 nm,,good targeting ability to lipid droplets in Hela cells,0.85,,
CCN(CC)c1ccc2c(c1)oc(=O)c1cc3c(ccc4nc5c(cc43)c(=O)oc3cc(N(CC)CC)ccc35)nc12 [1d],71%,429 nm,495 nm,,does not stain the lipid droplets in the cells,,has the ability to label mitochondria,0.90
